Reference: patent EP4778933A1 (Chengdu Hyperway Pharmaceuticals Co., Ltd., priority 2023, dated 2025)
Where two headings read alike, the source gives them in different places.

Experiments:
[1] = test system: KRAS G12D-mediated ERK phosphorylation; assay: Inhibition of KRAS G12D-mediated ERK phosphorylation in AGS cells (in-cell pERK/GAPDH immunofluorescence); format: cell-based
Protocol: Day 1: AGS cells, SW480 cells, NCI H358 cells, HCT116 cells, and KP2 cells were seeded into 384-well cell culture plates and cultured overnight in a 37°C, 5% CO2 incubator.
Day 2: The compounds were added to the plates using Echo550 and incubated for 3 h in a 37°C, 5% CO2 incubator. Then, cells fixed with paraformaldehyde, permeated with methanol and blocked with a blocking solution were added. Finally, a mixed solution of primary antibodies (rabbit anti pERK, mouse anti GAPDH) was added, and the mixture was incubated overnight at 4°C.
Day 3: The mixed solution of primary antibodies was discarded, and a mixed solution of secondary antibodies (goat anti rabbit 800 CW, goat anti mouse 680 RD) was added. The resulting mixture was incubated at room temperature in the dark. Finally, the cell culture plate was washed with PBST, and then inverted for 1 minute of centrifugation. The fluorescence signal values were read with Odyssey CLx.
ERK phosphorylation was calculated according to the following formula: [formula] • Negative control: DMSO • Positive control: 10 µM Reference • IC50 value was fitted and calculated by XLFit 5.0 using the parametric formula. • Y = Bottom+(Top-Bottom)/(1+10^((LogIC50-X)*HillSlope)) • X: log value of compound concentration. • Y: average value of relative expression of p-ERK between replicate wells.

[2] = In vivo pharmacokinetic test in mice; conditions: mouse, female BALB/c mice, oral, single dose 30 mg/kg, plasma
Protocol: Each test compound was administered orally once to female BALB/c mice for pharmacokinetic study. The test compounds were prepared on the day of administration. The oral administration solvent: 50 mM sodium citrate (pH 5.0) + 10% captisol. The oral administration was conducted in a dose of 30 mg/kg. The animals were fasted for 10-14 h before oral administration, and the feeding was resumed 4 h after administration. Pharmacokinetic samples were collected through the orbit. The collection time points were: 15 min, 30 min, 1 h, 2 h, 4 h, 6 h, 8 h and 24 h after administration. Three whole blood samples were collected at each time point, with a collection volume of about 0.2 mL, and anticoagulated with sodium heparin. After blood samples were collected, they were immediately placed on ice and centrifuged within 1 h to isolate plasma (centrifugation conditions: 8000 rpm, 1 min, 2-8°C). The collected plasma was stored in a -20°C refrigerator before analysis. The concentrations of compounds in the plasma samples were determined using an LC-MS/MS analysis method.

[3] = Homo sapiens, AGS, 3 h, AGS cells, 3 h incubation, read-out: Inhibitory activity on ERK phosphorylation (IC50) AGS-G12D
[4] = Homo sapiens, AGS, 3 h, read-out: Inhibitory activity on ERK phosphorylation (IC50) AGS-G12D, AGS cells, 3 h incubation
[5] = AGS cells, 3 h incubation, read-out: Inhibitory activity on ERK phosphorylation (IC50) AGS-G12D

**Q.** Which IC50 [1, 3] does the source give for N#Cc1c(N)sc2c(F)ccc(-c3c(Cl)cc4c(N5CCCC(O)(C(F)(F)F)CC5)nc(OCC56CCCC5C(c5cc(F)c(F)c(F)c5)CC6)nc4c3F)c12 (racemic) [Example 5, 2-amino-4-{6-chloro-8-fluoro-4-[4-hydroxy-4-(trifluoromethyl)azepan-1-yl]-2-({[1-(3,4,5-trifluorophenyl)octahydrocyclopenta[1,2-a][5]annulen-3a-yl]methyl}oxy)quinazolin-7-yl}-7-fluorobenzo[b]thiop hene-3-carbonitrile] here?
**A.** Its IC50 is 313 nM.

**Q.** Which IC50 [1, 4] does the source give for CC1(O)COCCN(c2nc(OCC34CCCN3C(c3cc(F)c(F)c(F)c3)CC4)nc3c(F)c(-c4cccc5sc(N)c(C#N)c45)c(P(C)(C)=O)cc23)C1 (single isomer, unassigned) [Example 33, 2-amino-4-{6-[dimethyl(oxo)-15-methylphosphino]-8-fluoro-4-(6-hydroxy-6-methyl-1,4-oxazepan-4-yl)-2-({[3-(3,4,5-trifluorophenyl)-2,3,5,6,7,7a-hexahydro-1H-pyrrolizin-7a-yl]methyl}oxy)quinazolin-7-yl}benzo[b]thiophene-3-carbonitrile] here?
**A.** Its IC50 is 196 nM.

**Q.** What does the source list for N#Cc1c(N)sc2c(F)ccc(-c3c(Cl)cc4c(N5CCOCC5)nc(OC[C@@]56CCCN5[C@H](c5cc(F)c(F)c(F)c5)CC6)nc4c3F)c12 (relative stereo) [Example 17]?
**A.** AUC ([2]; read-out: AUC): 3990 ng·h/mL; Cmax ([2]; read-out: Cmax): 1490 ng/mL; IC50 ([1]; Homo sapiens, AGS cells, 3 h incubation, read-out: Inhibitory activity on ERK phosphorylation (IC50) AGS-G12D): 41 nM

**Q.** Which IC50 [1, 3] does the source give for CC1(O)CCCN(c2nc(OCC34CCCN3C(c3cc(F)c(F)c(F)c3)CC4)nc3c(F)c(-c4ccc(F)c5sc(N)c(C#N)c45)c(Cl)cc23)CC1 (racemic) [Example 6, 2-amino-4-[6-chloro-8-fluoro-4-(4-hydroxy-4-methylazepan-1-yl)-2-({[3-(3,4,5-trifluorophenyl)-2,3,5,6,7,7a-hexahydro-1H-pyrrolizin-7a-yl]methyl}oxy)quinazolin-7-yl]-7-fluorobenzo[b]thioph ene-3-carbonitrile] here?
**A.** Its IC50 is 787 nM.

**Q.** Which IC50 ([1]; AGS cells, 3 h incubation) does the source give for CC1(O)COCCN(c2nc(OCC34CCCN3C(c3cc(F)c(F)c(F)c3)CC4)nc3c(F)c(-c4cccc5sc(N)c(C#N)c45)c(Br)cc23)C1 (single isomer, unassigned) [Example 25, 2-amino-4-[6-bromo-8-fluoro-4-(6-hydroxy-6-methyl-1,4-oxazepan-4-yl)-2-({[3-(3,4,5-trifluoropheny 1)-2,3,5,6,7,7a-hexahydro-1H-pyrrolizin-7a-yl]methyl}oxy)quinazolin-7-yl]benzo[b]thiophene-3-carb onitrile] here?
**A.** The IC50 was over 1000 nM.

**Q.** For CC1=NOC2(CCCN(c3nc(OCC45CCCN4C(c4cc(F)c(F)c(F)c4)CC5)nc4c(F)c(-c5ccc(F)c6sc(N)c(C#N)c56)c(Cl)cc34)CC2)C1 (racemic) [Example 3, 2-amino-4-[6-chloro-8-fluoro-4-(3-methyl-2,8-diaza-1-oxaspiro[4.6]undec-2-en-8-yl)-2-({[3-(3,4,5-trifluorophenyl)-2,3,5,6,7,7a-hexahydro-1H-pyrrolizin-7a-yl]methyl}oxy)quinazolin-7-yl]-7-fl uorobenzo[b]thiophene-3-carbonitrile], which IC50 [1, 3] is on record?
**A.** Its IC50 is over 1000 nM.

**Q.** Which IC50 [1, 4] does the source give for N#Cc1c(N)sc2c(F)ccc(-c3c(Cl)cc4c(N5CCC6(CC5)CC(O)CO6)nc(OCC56CCCN5C(c5cc(F)c(F)c(F)c5)CC6)nc4c3F)c12 (racemic) [Example 14, 8-[7-(2-amino-7-fluorobenzo[b]thiophen-4-yl)-6-chloro-8-fluoro-2-({[3-(3,4,5-trifluorophenyl)-2,3,5,6,7,7a-hexahydro-1H-pyrrolizin-7a-yl]methyl}oxy)quinazolin-4-yl]-8-aza-1-oxaspiro[4.5]de c-3-ol] here?
**A.** The IC50 was 758 nM.

**Q.** For CC1(O)COCCN(c2nc(OCC34CCCN3C(c3cc(F)c(F)c(F)c3)CC4)nc3c(F)c(-c4cncc5sc(N)c(C#N)c45)c(Cl)cc23)C1 (single isomer, unassigned) [Example 37, 2-amino-4-[6-chloro-8-fluoro-4-(6-hydroxy-6-methyl-1,4-oxazepan-4-yl)-2-({[1-(3,4,5-trifluoropheny 1)octahydrocyclopenta[1,2-a][5]annulen-3a-yl]methyl}oxy)quinazolin-7-yl]thieno[2,3-c]pyridine-3-ca rbonitrile], which IC50 [1, 4] is on record?
**A.** The IC50 was 193 nM.

**Q.** For CC1(O)COCCN(c2nc(OCC34CCCN3C(c3cc(F)c(F)c(F)c3)CC4)nc3c(F)c(-c4cccc5sc(N)c(C#N)c45)c(I)cc23)C1 (single isomer, unassigned) [Example 29, 2-amino-4-[6-iodo-8-fluoro-4-(6-hydroxy-6-methyl-1,4-oxazepan-4-yl)-2-({[3-(3,4,5-trifluorophenyl)-2,3,5,6,7,7a-hexahydro-1H-pyrrolizin-7a-yl]methyl}oxy)quinazolin-7-yl]benzo[b]thiophene-3-carbonitrile], which IC50 [1, 5] is on record?
**A.** Its IC50 is 33 nM.

**Q.** With CC1(O)COCCN(c2nc(OCC34CCCN3C(c3cc(F)c(F)c(F)c3)CC4)nc3c(F)c(-c4cccc5sc(N)c(C#N)c45)c(Cl)cc23)C1 (single isomer, unassigned) [Example 22, 2-amino-4-[6-chloro-8-fluoro-4-(6-hydroxy-6-methyl-1,4-oxazepan-4-yl)-2-({[3-(3,4,5-trifluorophenyl)-2,3,5,6,7,7a-hexahydro-1H-pyrrolizin-7a-yl]methyl}oxy)quinazolin-7-yl]benzo[b]thiophene-3-carbonitrile] as the compound, how does the IC50 [1, 5] read?
**A.** Its IC50 is 43 nM.

**Q.** For COC1CCN(c2nc(OCC34CCCN3C(c3cc(F)c(F)c(F)c3)CC4)nc3c(F)c(-c4ccc(F)c5sc(N)c(C#N)c45)c(N)cc23)C1 (racemic) [Example 15, 2-amino-4-[6-amino-8-fluoro-4-(3-methoxytetrahydro-1H-pyrrol-1-yl)-2-({[3-(3,4,5-trifluor ophenyl)-2,3,5,6,7,7a-hexahydro-1H-pyrrolizin-7a-yl]methyl}oxy)quinazolin-7-yl]-7-fluorobenzo[b]t hiophene-3-carbonitrile], which IC50 [1, 3] is on record?
**A.** The IC50 was over 1000 nM.

**Q.** For CC1(O)COCCN(c2nc(OCC34CCCN3C(c3cc(F)c(F)c(F)c3)CC4)nc3c(F)c(-c4cccc5sc(N)c(C#N)c45)c(Cl)cc23)C1 (single isomer, unassigned) [Example 20, 2-amino-4-[6-chloro-8-fluoro-4-(6-hydroxy-6-methyl-1,4-oxazepan-4-yl)-2-({[3-(3,4,5-trifluorophenyl)-2,3,5,6,7,7a-hexahydro-1H-pyrrolizin-7a-yl]methyl}oxy)quinazolin-7-yl]benzo[b]thiophene-3-carbonitrile], which IC50 [1, 5] is on record?
**A.** Its IC50 is over 1000 nM.

**Q.** With N#Cc1c(N)sc2c(F)ccc(-c3c(Cl)cc4c(N5CCOCC(O)(CO)C5)nc(OCC56CCCN5C(c5cc(F)c(F)c(F)c5)CC6)nc4c3F)c12 (racemic) [Example 2, 2-amino-4-{6-chloro-8-fluoro-4-[6-hydroxy-6-(hydroxymethyl)-1,4-oxazepan-4-yl]-2-({[3-(3,4,5-trifluorophenyl)-2,3,5,6,7,7a-hexahydro-1H-pyrrolizin-7a-yl]methyl}oxy)quinazolin-7-yl}-7-flu orobenzo[b]thiophene-3-carbonitrile] as the compound, how does the IC50 [1, 3] read?
**A.** The IC50 was over 1000 nM.

**Q.** For N#Cc1c(N)sc2cccc(-c3c(Cl)cc4c(N5CCNOCC5)nc(OCC56CCCN5C(c5cc(F)c(F)c(F)c5)CC6)nc4c3F)c12 (single isomer, unassigned) [Example 34, 2-amino-4-[6-chloro-8-fluoro-4-(1,2,5-oxadiazepan-5-yl)-2-({[3-(3,4,5-trifluorophenyl)-2,3,5,6,7,7a-hexahydro-1H-pyrrolizin-7a-yl]methyl}oxy)quinazolin-7-yl]benzo[b]thiophene-3-carbonitrile], which IC50 [1, 3] is on record?
**A.** Its IC50 is 67 nM.

**Q.** Which IC50 ([1]; AGS cells, 3 h incubation) does the source give for CC1(O)COCCN(c2nc(OCC34CCCN3C(c3cc(F)c(F)c(F)c3)CC4)nc3c(F)c(-c4cccc5sc(N)c(C#N)c45)c(Br)cc23)C1 (single isomer, unassigned) [Example 24, 2-amino-4-[6-bromo-8-fluoro-4-(6-hydroxy-6-methyl-1,4-oxazepan-4-yl)-2-({[3-(3,4,5-trifluoropheny 1)-2,3,5,6,7,7a-hexahydro-1H-pyrrolizin-7a-yl]methyl}oxy)quinazolin-7-yl]benzo[b]thiophene-3-carb onitrile] here?
**A.** The IC50 was 106 nM.
